Data taken from publication PMC5469366 (Journal of medicinal chemistry, 2017).
Several values for one entry are separate records, joined by “and”; a condition that tells them apart may be missing. Equal entries are not always repeated.

Legend:
[1] = tested on: A. baumannii (ATCC 19606); assay: Micro dilution broth checkerboard; type: cell-based, Acinetobacter baumannii; conditions: wells at growth–no growth interface
[2] = tested on: MDR-A. baumannii ATCC BAA-1800; assay: MIC/MBC broth dilution, MDR A. baumannii; type: cell-based, Acinetobacter baumannii; conditions: for MBC / MIC: MDR-A. baumannii ATCC BAA-1800, broth dilution
A. baumannii (ATCC19606) [3] = assay: Mouse septicemia model, survival; type: in vivo, C57BL/6 mice
A. baumannii (ATCC19606) [4] = assay: Spontaneous mutation frequency on agar; type: cell-based, Acinetobacter baumannii; conditions: 4xMIC concentration
Caco-2 permeability = type: in vitro ADME; conditions: human
Vero cells = assay: Cytotoxicity; type: cell-based, monkey; conditions: MTT assay
A. baumannii ATCC 19606 = assay: MIC/MBC broth dilution, drug sensitive A. baumannii; type: cell-based, Acinetobacter baumannii; conditions: for MBC: kills 99.9% of bacteria
[5] = in vivo; cited from earlier work
[6] = combination of valnemulin and doxycycline

Compound	MIC CA and CB (concentrations of A and B in combination) [1, 6]	MBC [2]	MIC [2]	MIC (A. baumannii ATCC 19606)	MBC (A. baumannii ATCC 19606)	other results
C[C@H]1c2cccc(O)c2C(=O)C2=C(O)[C@]3(O)C(=O)C(C(N)=O)=C(O)[C@@H](N(C)C)[C@@H]3[C@@H](O)[C@@H]21.O [Doxycycline, doxycycline]	0.025 µg/mL and 0.05 µg/mL	–	–	–	–	MIC CA and CB (concentrations of A and B in combination) ([1]; combination of 1 and doxycycline): 0.025 µg/mL and 0.05 µg/mL
C=C[C@]1(C)C[C@@H](OC(=O)CSC(C)(C)CNC(=O)[C@H](N)C(C)C)[C@]2(C)[C@H](C)CC[C@]3(CC[C@@H](O)[C@H]32)[C@@H](C)[C@@H]1O [compound 1, (3R,3aR,4R,5R,7S,8S,9R,9aS,12R)-3,8-dihydroxy-4,7,9,12-tetramethyl-7-vinyldecahydro-4,9a-propanocyclopenta[8]annulen-5-yl 2-((1-((R)-2-amino-3-methylbutanamido)-2-methylpropan-2-yl)thio)acetate]	–	–	–	–	–	concentrations at which the MDR strain was killed ([2]; A. baumannii ATCC BAA-1800): 6.25 to 12.5 µg/mL; effectiveness in mouse septicemia model (A. baumannii (ATCC19606) [3]; IP single dose, 2 to 60 mg/kg): showed effectiveness in the same in vivo studies, but required higher dosage than that with 1-Dox35/1; spontaneous resistance mutation frequency (A. baumannii (ATCC19606) [4]): 1×10^−8; Papp (Caco-2 permeability): > 1 ×10⁻⁶ cm/s
colistin	–	25.0 µg/mL	>12.5 µg/mL	3.13 µg/mL	6.25 µg/mL	Cytotoxicity IC50 (Vero cells): > 200 µg/mL
C=C[C@]1(C)C[C@@H](OC(=O)CSC(C)(C)CNC(=O)[C@H](N)C(C)C)[C@]2(C)[C@H](C)CC[C@]3(CCC(=O)[C@H]32)[C@@H](C)[C@@H]1O [Valnemulin, valnemulin]	0.78 µg/mL and 1.56 µg/mL	–	–	–	–	half-lives in plasma [5]: 1.3 to 2.9 h
NC[C@H]1O[C@H](O[C@H]2[C@H](O)[C@@H](O[C@H]3O[C@H](CO)[C@@H](O)[C@H](N)[C@H]3O)[C@H](N)C[C@@H]2N)[C@H](N)C[C@@H]1O [Tobramycin, tobramycin]	–	–	–	–	–	survival of mice (A. baumannii (ATCC19606) [3]; 6.0 mg/kg dose IP): survived the mice
(3R,3aR,4R,5R,7S,8S,9R,9aS,12R)-3,8-dihydroxy-4,7,9,12-tetramethyl-7-vinyldecahydro-4,9a-propanocyclopenta[8]annulen-5-yl 2-((1-((R)-2-((S)-2,5-diaminopentanamido)-3-methylbutanamido)-2-methylpropan-2-yl)thio)acetate [compound 2]	–	>12.5 µg/mL	3.13 µg/mL	3.13 µg/mL	>12.5 µg/mL	–
